The experiment addresses APJ receptor (Homo sapiens (Human), UniProt P35414). Put plainly: [35S]GTPγS binding assay on membranes from CHO cells stably expressing human APJ receptor. It counts as biochemical. The settings on record: membranes of CHO cells stably expressing human APJ receptor, means of several independent experiments, read-out: Activity hAPJ SPA EC50 IP. Put shortly:
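EC50 values were obtained by non-linear regression of [35S]GTPγS (0.2 nM) binding after 90 min at RT, with nonspecific binding defined by 100 μM GTPγS. Reactions used human APJ–expressing CHO cell membranes on WGA PS beads in HEPES pH 7.5 buffer with 5 mM MgCl2, 200 mM NaCl, 3 μM GDP and 0.1% BSA.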
Background: Binding of GTPγS marks nucleotide exchange on a G protein.

The term EC50 denotes the concentration at which the effect is half-maximal.

APJ receptor, sequence (P35414 whole entry): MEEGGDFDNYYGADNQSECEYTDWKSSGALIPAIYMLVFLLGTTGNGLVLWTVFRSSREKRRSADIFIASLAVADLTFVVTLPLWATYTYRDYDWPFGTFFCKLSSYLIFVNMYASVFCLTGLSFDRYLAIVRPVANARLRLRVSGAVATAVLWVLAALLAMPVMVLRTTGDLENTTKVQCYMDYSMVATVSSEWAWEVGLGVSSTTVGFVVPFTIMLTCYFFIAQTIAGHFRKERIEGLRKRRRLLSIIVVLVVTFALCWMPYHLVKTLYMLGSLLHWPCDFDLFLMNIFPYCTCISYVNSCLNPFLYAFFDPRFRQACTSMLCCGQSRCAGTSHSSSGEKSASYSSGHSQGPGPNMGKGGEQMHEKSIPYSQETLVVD

For the compound `COc1cccc(OC)c1-n1c(NS(=O)(=O)[C@@H](C)Cc2ncc(Cl)cc2C#N)nnc1-c1ccco1` (mixture of isomers) [Example 18.0, (2S)-1-(5-chloro-3-cyano-2-pyridinyl)-N-(4-(2,6-dimethoxyphenyl)-5-(2-furanyl)-4H-1,2,4-triazol-3-yl)-2-propanesulfonamide and (2R)-1-(5-chloro-3-cyano-2-pyridinyl)-N-(4-(2,6-dimethoxyphenyl)-5-(2-furanyl)-4H-1,2,4-triazol-3-yl)-2-propanesulfonamide], the EC50 was 0.28 nM.
The result for `COc1ncnc(OC)c1-n1c(NS(=O)(=O)[C@@H](C)[C@@H](OC(C)C)c2ncc(C)cn2)nnc1-c1ccc(C)o1` [Example 401.0, (1S,2S)-N-(4-(4,6-dimethoxypyrimidin-5-yl)-5-(5-methylfuran-2-yl)-4H-1,2,4-triazol-3-yl)-1-isopropoxy-1-(5-methylpyrimidin-2-yl)propane-2-sulfonamide] reads 0.53 nM; that for `COc1cccc(OC)c1-n1c(NS(=O)(=O)CCc2ncc(Cl)cc2-c2cc[nH]n2)nnc1-c1ccco1` [Example 223.0, 2-(5-chloro-3-(1H-pyrazol-3-yl)-2-pyridinyl)-N-(4-(2,6-dimethoxyphenyl)-5-(2-furanyl)-4H-1,2,4-triazol-3-yl)ethanesulfonamide], 0.32 nM; that for `COc1cccc(OC)c1-n1c(NS(=O)(=O)[C@@H](C)[C@H](O)c2coc(C)n2)nnc1-c1ccc(C)o1` (single isomer, unassigned) [Example 275.0, (1R,2S)—N-(4-(2,6-Dimethoxyphenyl)-5-(5-methyl-2-furanyl)-4H-1,2,4-triazol-3-yl)-1-hydroxy-1-(2-methyl-1,3-oxazol-4-yl)-2-propanesulfonamide or (1S,2R)—N-(4-(2,6-dimethoxyphenyl)-5-(5-methyl-2-furanyl)-4H-1,2,4-triazol-3-yl)-1-hydroxy-1-(2-methyl-1,3-oxazol-4-yl)-2-propanesulfonamide], 0.85 nM.
Turning to `COC[C@@H](Cc1ncc(F)cn1)S(=O)(=O)Nc1nnc(-c2ccc(C)o2)n1-c1c(OC)cccc1OC` (single isomer, unassigned) [Example 78.0, (2R)—N-(4-(2,6-Dimethoxyphenyl)-5-(5-methyl-2-furanyl)-4H-1,2,4-triazol-3-yl)-1-(5-fluoro-2-pyrimidinyl)-3-methoxy-2-propanesulfonamide or (2S)—N-(4-(2,6-dimethoxyphenyl)-5-(5-methyl-2-furanyl)-4H-1,2,4-triazol-3-yl)-1-(5-fluoro-2-pyrimidinyl)-3-methoxy-2-propanesulfonamide], the EC50 amounted to 0.77 nM.
Turning to `COc1cccc(OC)c1-n1c(NS(=O)(=O)[C@H]2C[C@@H](O)CN(c3ncc(F)cn3)C2)nnc1-c1ccco1` (single isomer, unassigned) [Example 167.0, (3S,5R)—N-(4-(2,6-Dimethoxyphenyl)-5-(2-furanyl)-4H-1,2,4-triazol-3-yl)-1-(5-fluoro-2-pyrimidinyl)-5-hydroxy-3-piperidinesulfonamide or (3R,5S)—N-(4-(2,6-dimethoxyphenyl)-5-(2-furanyl)-4H-1,2,4-triazol-3-yl)-1-(5-fluoro-2-pyrimidinyl)-5-hydroxy-3-piperidinesulfonamide], the EC50 was found to be 0.94 nM.
Next, `COc1cccc(OC)c1-n1c(NS(=O)(=O)C[C@H](O)c2ccc(Cl)cc2S(C)(=O)=O)nnc1-c1ccc(C)o1` (single isomer, unassigned) [Example 144.0, (2R)-2-(4-Chloro-2-(methylsulfonyl)phenyl)-N-(4-(2,6-dimethoxyphenyl)-5-(5-methyl-2-furanyl)-4H-1,2,4-triazol-3-yl)-2-hydroxyethanesulfonamide or (2S)-2-(4-chloro-2-(methylsulfonyl)phenyl)-N-(4-(2,6-dimethoxyphenyl)-5-(5-methyl-2-furanyl)-4H-1,2,4-triazol-3-yl)-2-hydroxyethanesulfonamide]: 0.073 nM; `COc1cccc(OC)c1-n1c(NS(=O)(=O)[C@@H](C)[C@@H](O)c2ccc(C)cn2)nnc1-c1ccc(C)o1` (single isomer, unassigned) [Example 63.0]: 0.24 nM; `CCN(CC)C(=O)c1cc(Cl)cnc1C[C@@H](C)S(=O)(=O)Nc1nnc(-c2ccco2)n1-c1c(OC)cccc1OC` (single isomer, unassigned) [Example 21.0, 5-chloro-2-((2R)-2-((4-(2,6-dimethoxyphenyl)-5-(2-furanyl)-4H-1,2,4-triazol-3-yl)sulfamoyl)propyl)-N,N-diethyl-3-pyridinecarboxamide or 5-chloro-2-((2S)-2-((4-(2,6-dimethoxyphenyl)-5-(2-furanyl)-4H-1,2,4-triazol-3-yl)sulfamoyl)propyl)-N,N-diethyl-3-pyridinecarboxamide]: 0.31 nM.
On to `COc1cccc(OC)c1-n1c(NS(=O)(=O)CCc2ncc(Cl)cc2CN2CCOCC2)nnc1-c1ccco1` [Example 219.0, 2-(5-Chloro-3-(4-morpholinylmethyl)-2-pyridinyl)-N-(4-(2,6-dimethoxyphenyl)-5-(2-furanyl)-4H-1,2,4-triazol-3-yl)ethanesulfonamide], for which the EC50 is 0.26 nM.
On to `COc1cccc(OC)c1-n1c(NS(=O)(=O)CCc2ncc(Cl)cc2CCN2CCCC2)nnc1-c1ccco1` [Example 232.0, 2-(5-Chloro-3-(2-(1-pyrrolidinyl)ethyl)-2-pyridinyl)-N-(4-(2,6-dimethoxyphenyl)-5-(2-furanyl)-4H-1,2,4-triazol-3-yl)ethanesulfonamide], for which the EC50 is 0.45 nM.
With `COc1cccc(OC)c1-n1c(NS(=O)(=O)[C@@H]2COCC[C@@H]2O)nnc1-c1ccc(C)o1` (single isomer, unassigned) [Example 403.0], the EC50 was 57 nM.
The result for `COc1cccc(OC)c1-n1c(NS(=O)(=O)[C@@H](C)Cc2ncc(F)cn2)nnc1-c1ccc(C)o1` (racemic) [Example 94.0, (2S)—N-(4-(2,6-Dimethoxyphenyl)-5-(5-methyl-2-furanyl)-4H-1,2,4-triazol-3-yl)-1-(5-fluoro-2-pyrimidinyl)-2-propanesulfonamide and (2R)—N-(4-(2,6-dimethoxyphenyl)-5-(5-methyl-2-furanyl)-4H-1,2,4-triazol-3-yl)-1-(5-fluoro-2-pyrimidinyl)-2-propanesulfonamide] reads 0.17 nM.
On to “(2R)-1-(3-cyano-5-fluoro-2-pyridinyl)-N-(4-(2,6-dimethoxyphenyl)-5-(2-furanyl)-4H-1,2,4-triazol-3-yl)-2-propanesulfonamide or (2S)-1-(3-cyano-5-fluoro-2-pyridinyl)-N-(4-(2,6-dimethoxyphenyl)-5-(2-furanyl)-4H-1,2,4-triazol-3-yl)-2-propanesulfonamide [Example 29.0]”, for which the EC50 amounted to 0.82 nM.
Turning to `COc1cccc(OC)c1-n1c(NS(=O)(=O)[C@H](C)Cc2cnc(C)cn2)nnc1-c1ccco1` (single isomer, unassigned) [Example 32.0, (2R)—N-(4-(2,6-dimethoxyphenyl)-5-(2-furanyl)-4H-1,2,4-triazol-3-yl)-1-(5-methyl-2-pyrazinyl)-2-propanesulfonamide or (2S)—N-(4-(2,6-dimethoxyphenyl)-5-(2-furanyl)-4H-1,2,4-triazol-3-yl)-1-(5-methyl-2-pyrazinyl)-2-propanesulfonamide], the EC50 worked out at 2.3 nM.
Next, `COc1cccc(OC)c1-n1c(NS(=O)(=O)[C@@H](C)Cc2ncc(Cl)cc2NC(C)=O)nnc1-c1ccco1` (racemic) [Example 13.0, N-(5-chloro-2-((2S)-2-((4-(2,6-dimethoxyphenyl)-5-(2-furanyl)-4H-1,2,4-triazol-3-yl)sulfamoyl)propyl)-3-pyridinyl)acetamide and N-(5-chloro-2-((2R)-2-((4-(2,6-dimethoxyphenyl)-5-(2-furanyl)-4H-1,2,4-triazol-3-yl)sulfamoyl)propyl)-3-pyridinyl)acetamide]: 0.19 nM; `COc1cccc(OC)c1-n1c(NS(=O)(=O)CCc2ccc(F)cc2C#N)nnc1-c1ccc(C)o1` [Example 119.0, 2-(2-Cyano-4-fluorophenyl)-N-(4-(2,6-dimethoxyphenyl)-5-(5-methylfuran-2-yl)-4H-1,2,4-triazol-3-yl)ethanesulfonamide]: 0.15 nM; `COc1cccc(OC)c1-n1c(NS(=O)(=O)C[C@@H](C)c2ncc(F)cn2)nnc1-c1ccc(C)o1` (racemic) [Example 127.0, (S)—N-(4-(2,6-Dimethoxyphenyl)-5-(5-methylfuran-2-yl)-4H-1,2,4-triazol-3-yl)-2-(5-fluoropyrimidin-2-yl)propane-1-sulfonamide and (R)—N-(4-(2,6-dimethoxyphenyl)-5-(5-methylfuran-2-yl)-4H-1,2,4-triazol-3-yl)-2-(5-fluoropyrimidin-2-yl)propane-1-sulfonamide]: 0.65 nM.
The result for `COc1cccc(OC)c1-n1c(NS(=O)(=O)[C@H](C)[C@H](O)c2ccc(F)cc2CO)nnc1-c1ccc(C)o1` (single isomer, unassigned) [Example 73.0] reads 0.49 nM; that for `COc1cccc(OC)c1-n1c(NS(=O)(=O)CCc2ccc(C#N)cn2)nnc1-c1ccc(C)o1` [Example 19.0, 2-(5-cyano-2-pyridinyl)-N-(4-(2,6-dimethoxyphenyl)-5-(5-methyl-2-furanyl)-4H-1,2,4-triazol-3-yl)ethanesulfonamide], 0.29 nM; that for `COc1cccc(OC)c1-n1c(NS(=O)(=O)[C@@H](C)[C@H](O)c2cccc3nccn23)nnc1-c1ccc(C)o1` (single isomer, unassigned) [Example 299.0, (1R,2S)—N-(4-(2,6-Dimethoxyphenyl)-5-(5-methyl-2-furanyl)-4H-1,2,4-triazol-3-yl)-1-hydroxy-1-imidazo[1,2-a]pyridin-5-yl-2-propanesulfonamide or (1S,2R)—N-(4-(2,6-dimethoxyphenyl)-5-(5-methyl-2-furanyl)-4H-1,2,4-triazol-3-yl)-1-hydroxy-1-imidazo[1,2-a]pyridin-5-yl-2-propanesulfonamide], 11 nM.

These data come from patent publication US10736883B2, “Triazole furan compounds as agonists of the APJ receptor” (AMGEN INC., priority 2016, dated 2020).
